Results taken from the RepoRT retention time repository (doi:10.1016/j.chroma.2019.01.023).

Experiment: HILIC, Merck SeQuant ZIC-pHILIC, 150 × 2.1 mm, 5 µm, 40 °C, 0.3 mL/min, estimated dead time 1.1 min; A: acetonitrile; B: water + 2.8 mM ammonium formate, pH 9; gradient (min/%B) 0/5 1/5 10/51 13/51 13.1/5 20/5
Conditions: stereoisomer not certain

Row | Structure (SMILES) | LC retention time [min]
1 | NC(CCSCC(N)C(=O)O)C(=O)O (stereo unspecified) [CYSTATHIONINE] | 10.3
2 | OCC1OC(OCC2OC(OCC3OC(OC4(CO)OC(CO)C(O)C4O)C(O)C(O)C3O)C(O)C(O)C2O)C(O)C(O)C1O (stereo unspecified) [STACHYOSE] | 10.1
3 | O=C(O)CCC(=O)C(=O)O [OXOGLUTARATE] | 9.21
4 | O=C(O)C1OC(OP(=O)(O)OP(=O)(O)OCC2OC(n3ccc(=O)[nH]c3=O)C(O)C2O)C(O)C(O)C1O (stereo unspecified) [URIDINE DIPHOSPHATE GLUCURONIC ACID] | 11
5 | O=P(O)(O)OCC1OC(O)(COP(=O)(O)O)C(O)C1O (stereo unspecified) [FRUCTOSE BISPHOSPHATE] | 10.9
6 | NC(CCCC(N)C(=O)O)C(=O)O (stereo unspecified) [DIAMINOPIMELATE] | 10.5
7 | CC(=O)NC1C(O)CC(O)(C(=O)O)OC1C(O)C(O)CO (stereo unspecified) [N-ACETYLNEURAMINATE] | 8.33
8 | O=C(O)C=C(CC(=O)O)C(=O)O [TRANS-ACONITATE] | 10.5
9 | O=C(CO)C(O)C(O)C(O)COP(=O)(O)O (stereo unspecified) [FRUCTOSE 6-PHOSPHATE] | 9.3
10 | NC1C(O)OC(COP(=O)(O)O)C(O)C1O (stereo unspecified) [GLUCOSAMINE 6-PHOSPHATE] | 10.2
11 | Nc1nc2c(ncn2C2CC(O)C(COP(=O)(O)OP(=O)(O)O)O2)c(=O)[nH]1 (stereo unspecified) [DGDP] | 10.2
12 | CNCC(O)c1ccc(O)c(O)c1 (stereo unspecified) [EPINEPHRINE] | 2.03
13 | Nc1ncnc2c1ncn2C1CC(O)C(COP(=O)(O)OP(=O)(O)OP(=O)(O)O)O1 (stereo unspecified) [DEOXYADENOSINE TRIPHOSPHATE] | 10.2
14 | OC1COC(O)C(O)C1O (stereo unspecified) [XYLOSE] | 8.34
15 | Nc1ccn(C2OC(COP(=O)(O)OP(=O)(O)OP(=O)(O)O)C(O)C2O)c(=O)n1 (stereo unspecified) [CYTIDINE TRIPHOSPHATE] | 11.1
16 | CCCCCCCCC(=O)[O-] [NONANOATE] | 5.16
17 | CN(C)C(N)=NCCCC(N)C(=O)O (stereo unspecified) [N,N-DIMETHYL-ARGININE] | 2.02
18 | Nc1nc2c(ncn2C2OC(COP(=O)(O)OP(=O)(O)O)C(O)C2O)c(=O)[nH]1 (stereo unspecified) [GUANOSINE DIPHOSPHATE] | 10.5

Row | Structure (SMILES) | LC retention time [min]
19 | NCCOP(=O)(O)OP(=O)(O)OCC1OC(n2ccc(N)nc2=O)C(O)C1O (stereo unspecified) [CDP-ETHANOLAMINE] | 9.33
20 | O=c1[nH]cnc2c1ncn2C1OC(COP(=O)(O)OP(=O)(O)OP(=O)(O)O)C(O)C1O (stereo unspecified) [INOSINE TRIPHOSPHATE] | 11
21 | NCCS(=O)O [HYPOTAURINE] | 8.8
22 | NCCOP(=O)(O)O [ETHANOLAMINE PHOSPHATE] | 9.23
23 | O=C(O)C(O)CO (stereo unspecified) [GLYCERATE] | 7.98
24 | NC(CCS)C(=O)O (stereo unspecified) [HOMOCYSTEINE] | 9.91
25 | CC(C)(COP(=O)(O)OP(=O)(O)OCC1OC(n2cnc3c(N)ncnc32)C(O)C1OP(=O)(O)O)C(O)C(=O)NCCC(=O)NCCS (stereo unspecified) [COENZYME A] | 9.12
26 | NC(CS)C(=O)O (stereo unspecified) [CYSTEINE] | 10.2
27 | Nc1ncnc2c1ncn2C1OC(COP(=O)(O)OP(=O)(O)O)C(O)C1O (stereo unspecified) [ADENOSINE 5'-DIPHOSPHATE] | 9.46
28 | Nc1ccn(C2OC(CO)C3OP(=O)(O)OC32)c(=O)n1 (stereo unspecified) [CYTIDINE 2',3'-CYCLIC PHOSPHATE] | 8.06
29 | CS(=N)(=O)CCC(N)C(=O)O (stereo unspecified) [METHIONINE SULFOXIMINE] | 9.03
30 | O=C(O)C(O)COP(=O)(O)O (stereo unspecified) [3-PHOSPHOGLYCERATE] | 10.1
31 | Nc1ccn(C2OC(COP(=O)(O)OP(=O)(O)O)C(O)C2O)c(=O)n1 (stereo unspecified) [CYTIDINE DIPHOSPHATE] | 10.2
32 | O=P(O)(O)OCC1OC(O)C(O)C1O [D-RIBOSE 5-PHOSPHATE] | 9.19
33 | CCOC(=O)CC(=O)[O-] [MONOETHYLMALONATE] | 6.48
34 | C[C@@H](N)C(=O)O [D-ALANINE] | 5.74
35 | O=C(O)C1(O)CC(O)C(O)C(O)C1 (stereo unspecified) [QUINATE] | 8.1
36 | NC(C(=O)O)C(O)C(O)C(O)CO (stereo unspecified) [GLUCOSAMINATE] | 9.91
